Measurements published in patent publication US10624992B2, “Human airway stem cells in lung epithelial engineering” (The General Hospital Corporation, priority 2016, dated 2020).

Key:
[1] = tested on: primary human lung epithelial basal cells; assay: Effect of ROCK inhibitor on cell phenotype and senescence during cell isolation and passage; format: cell-based
Description: FIGS. 8A-C: Effect of ROCK Inhibitor on Cell Phenotype and Senescence. […] Donor lung peripheral tissue (1-inch cubed) was washed in αMEM and then chopped into ˜¼ inch pieces with scissors and digested in 0.1 mg/ml DNAse (Sigma) and 1.4 mg/ml Pronase (Roche, 11459643001) for 24 hours/4° C. (52). Digested tissue was plated onto uncoated culture flasks in SAGM for 30 minutes/37° C., then non-adherent cells transferred and adhered to human Collagen-IV (Sigma-Aldrich C7521)-coated flasks. Epithelial cells were maintained in SAGM (Lonza, CC-3118) and passaged at 80% confluent (approximately 3-5 days/passage). For cells treated with γ-secretase inhibitors (1) 3-Isobutyl-1-methylxanthine (100 μg/ml IBMX, Sigma-Aldrich, 15879) and (2) N-[(3,5-Difluorophenyl)acetyl]-L-alanyl-2-phenyl]glycine-1,1-dimethylethyl ester (50 μg/ml DAPT, Selleck Chemicals, S2215), media was changed daily. Primary endothelial cells were isolated from the large vessels of donor lungs using the same digestion protocol. The endothelial population was sorted for CD31^+ purity by flow cytometry, and maintained and expanded on Gelatin coated flasks in EGM2 (Lonza, CC-3162) until utilized for human lung recellularization (See FIGS. 7A-B). […] Quantitative gene expression was analyzed using Taqman probes and the OneStep Plus system (Applied Biosystems). […]

[2] = tested on: BESCs on decellularized rat lung scaffolds; assay: Ex vivo rat lung recellularization on scaffolds pre-coated with TN-C and/or FBN-2; format: cell-based, human; settings: Day 3 and 7
Description: Decellularized lung scaffolds were pre-coated with (A) PBS control, (B) TN-C, 10 μg/ml, (C) FBN-2, (10 μg/ml each of N- and C-terminal fragment of FBN-2), or (D) TN-C+FBN-2 (10 μg/ml each of TN-C and of N- and C-terminal fragment of FBN-2), by delivery through the trachea. Solution was recycled to the trachea for 90 min at 37° C. A total of 20×10^6 primary lung epithelial cells (passage 3) were then delivered to the scaffold airways in 20 ml of SAGM by gravity. Constant media perfusion of SAGM through the pulmonary artery was maintained at 4 ml/min (pressure 15-20 mmHg) and changed daily. […]
mRNA was isolated (Qiagen RNeasy Plus Kit) and transcribed to cDNA (Invitrogen SuperScript III). Gene expression was analyzed using Taqman probes and the OneStep Plus system (Applied Biosystems). Each biological sample was analyzed in experimental replicate (n=2 repeated wells of the qPCR reaction) and the Ct value of each replicate was averaged and handed as n=1 unique biologic sample. Expression for each sample was normalized to β-Actin (ACTA1) gene expression (ΔCt) and relative to cadaveric peripheral lung tissue control samples (ΔΔCt), with fold change calculated by 2-ΔΔCt (Livak and Schmittgen, Methods. 2001; 25(4):402-8). A total of n=3 unique biological samples were analyzed for each reported experiment. […]

BESCs [3] = assay: In vitro migration assay on protein coatings; format: cell-based, human; settings: over 3 h, compared to Collagen IV coating alone, p<0.001; mixture of N- and C-terminal halves of FBN-2
Description: For migration assay, after coating as above, a small inset (MIDI) was added to the wells prior to cell seeding. A total of 1×10^4 cells were seeded within the insert and incubated for 12 h, before the insert was removed. Bright-field images were taken every 30 min for 180 min to track cell migration. Images were analyzed with ImageJ software (Schneider et al., Nature methods. 2012; 9(7):671-5) to quantify the change in cell-free area.

BESCs [4] = assay: In vitro culture of BESCs on Collagen IV plates supplemented with TN-C and/or FBN-2; format: cell-based, human; settings: 7 d culture, compared to uncoated or Collagen IV coated wells
Description: 24-well plates were pre-coated with human Collagen IV (10 μg/ml) Sigma-Aldrich C7521) for 2 h at 37° C. After removal of the collagen solution, TN-C (10 μg/ml, R&D 3358-TC-050) or the recombinant N-terminal half (FBN-2-N) or C-terminal half (FBN-2-C) of human FBN-2 (10 μg/ml) (Lin et al., The Journal of biological chemistry. 2002; 277(52):50795-804) were then added to select wells, and incubated for 2 h at 37° C. A total of 1×10^5 BESC were subsequently plated to each well and cultured for 7 d in SAGM.
mRNA was isolated (Qiagen RNeasy Plus Kit) and transcribed to cDNA (Invitrogen SuperScript III). Gene expression was analyzed using Taqman probes and the OneStep Plus system (Applied Biosystems). Each biological sample was analyzed in experimental replicate (n=2 repeated wells of the qPCR reaction) and the Ct value of each replicate was averaged and handed as n=1 unique biologic sample. Expression for each sample was normalized to β-Actin (ACTA1) gene expression (ΔCt) and relative to cadaveric peripheral lung tissue control samples (ΔΔCt), with fold change calculated by 2-ΔΔCt (Livak and Schmittgen, Methods. 2001; 25(4):402-8). A total of n=3 unique biological samples were analyzed for each reported experiment.
After de-paraffinization and rehydration, 5 μm tissue section were permeabilized with 0.1% Triton X-100 for intracellular antigens, when appropriate. […]

[5] = tested on: primary epithelial basal cells (BESCs); assay: Notch inhibitor treatment of primary epithelial basal cells in vitro (qPCR, immunofluorescence); format: cell-based, human; settings: 5 days in vitro, compared to No Treatment
Description: Donor lung peripheral tissue (1-inch cubed) was washed in αMEM and then chopped into ˜¼ inch pieces with scissors and digested in 0.1 mg/ml DNAse (Sigma) and 1.4 mg/ml Pronase (Roche, 11459643001) for 24 hours/4° C. (52). Digested tissue was plated onto uncoated culture flasks in SAGM for 30 minutes/37° C., then non-adherent cells transferred and adhered to human Collagen-IV (Sigma-Aldrich C7521)-coated flasks. Epithelial cells were maintained in SAGM (Lonza, CC-3118) and passaged at 80% confluent (approximately 3-5 days/passage). For cells treated with γ-secretase inhibitors (1) 3-Isobutyl-1-methylxanthine (100 μg/ml IBMX, Sigma-Aldrich, 15879) and (2) N-[(3,5-Difluorophenyl)acetyl]-L-alanyl-2-phenyl]glycine-1,1-dimethylethyl ester (50 μg/ml DAPT, Selleck Chemicals, S2215), media was changed daily. Primary endothelial cells were isolated from the large vessels of donor lungs using the same digestion protocol. The endothelial population was sorted for CD31^+ purity by flow cytometry, and maintained and expanded on Gelatin coated flasks in EGM2 (Lonza, CC-3162) until utilized for human lung recellularization (See FIGS. 7A-B). RNA was isolated using the RNEasy Plus (Qiagen). cDNA was transcribed using the Superscript III kit (Invitrogen). Quantitative gene expression was analyzed using Taqman probes and the OneStep Plus system (Applied Biosystems). […]

[6] = tested on: BESCs on acellular rat lung scaffolds; assay: Rat lung scaffold recellularization and ex vivo culture with Notch inhibitors; format: cell-based, human; settings: DAPT 50 nM in vitro 5 days, then 5 days ex vivo on rat lung scaffold without inhibitors
Description: Primary lung epithelial cells (passage 3) were harvested from 2-D culture, counted, and re-introduced to the scaffold airways in solution (20 ml) by gravity. Continuous media perfusion through the pulmonary artery was maintained at 4 ml/min by peristaltic pump and changed daily.
RNA was isolated using the RNEasy Plus (Qiagen). cDNA was transcribed using the Superscript III kit (Invitrogen). Quantitative gene expression was analyzed using Taqman probes and the OneStep Plus system (Applied Biosystems). Expression was normalized to β-Actin expression and relative to cadaveric lung tissue control samples.
Primary Antibodies (1:100): p63 (Santa Cruz, sc-25268), Krt5 (Abcam, ab24647), E-cadherin (BD, 610181), Surfactant Protein-B (Millipore, AB3430), pro-Surfactant Protein-C (Abcam, ab3786), Aquaporin-5 (Abcam, ab92320), Acetylated α-Tubulin (Abcam, ab24610), α2β1 integrin (Abcam, ab24697), α3β1 integrin (Abcam, ab24696), and CD31 (Daki, M082301-2). Secondary antibodies (1:400): Alexafluor 488 and 594 (Life Technologies).

## C[C@@H](N)[C@H]1CC[C@H](C(=O)Nc2ccncc2)CC1 [Y-27632]
[1]; during cell isolation and passage
  basal cell population, proliferation (Ki67, PCNA) and senescence (CDKN2A): did not enhance the basal cell population, or alter proliferation (Ki67, PCNA) or senescence
[1]; passage 1 and passage 4, n=3 cell lines, t-test
  gene expression, treated vs untreated: No significant differences

## TN-C: Tenascin-C glycoprotein (R&D 3358-TC-050), used as coating at 10 μg/ml
[2]
  Ki67 expression of Krt5+ BESCs (immunofluorescence): significant increase in proliferation
BESCs [3]
  BESC migration rate (change in cell-free area): Significantly higher rates of BESC migration
BESCs [4]
  proliferation (gene expression): significantly greater proliferation
  senescence (gene expression): less senescence

## CC(C)Cn1c(=O)n(C)c(=O)c2[nH]cnc21 [IBMX, 3-Isobutyl-1-methylxanthine]
[5]
  SP-B and SP-C gene expression (type II pneumocyte markers): ineffective alone

## C[C@H](NC(=O)Cc1cc(F)cc(F)c1)C(=O)NC(C(=O)OC(C)(C)C)c1ccccc1 (stereo partly drawn) [DAPT]
[6]
  distal type2-like fate after in vitro pre-treatment and inhibitor withdrawal: maintained a distal type2-like fate
[5]
  SP-B and SP-C gene expression (type II pneumocyte markers): ineffective alone
